Laboratory results published in PubChem BioAssay (NCI).
Several values for one entry are separate records, joined by “and”; a condition that tells them apart may be missing. Identical values can stand only once.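 How tested: cells in 96-well plates exposed to compound for 48 hours at five concentrations. GI50 marks 50% less growth. Definition used: TGI = concentration required for complete inhibition of growth.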

Legend:
Assay in all cases: inhibition of tumour cell growth, NCI panel, 48 h
MCF7 breast = system: MCF7 breast
MDA-N = system: MDA-N
NCI/ADR-RES ovarian = system: NCI/ADR-RES ovarian
OVCAR-4 ovarian = system: OVCAR-4 ovarian
OVCAR-5 ovarian = system: OVCAR-5 ovarian
PC-3 prostate = system: PC-3 prostate
RPMI-8226 leukemia = system: RPMI-8226 leukemia
SK-MEL-28 melanoma = system: SK-MEL-28 melanoma
T-47D breast = system: T-47D breast
UACC-62 melanoma = system: UACC-62 melanoma

Row | SMILES | TGI (MCF7 breast) | TGI (MDA-N) | TGI (NCI/ADR-RES ovarian) | TGI (OVCAR-4 ovarian) | TGI (OVCAR-5 ovarian) | TGI (PC-3 prostate) | TGI (RPMI-8226 leukemia) | TGI (SK-MEL-28 melanoma) | GI50 (MCF7 breast) | GI50 (NCI/ADR-RES ovarian) | GI50 (OVCAR-4 ovarian) | GI50 (OVCAR-5 ovarian) | GI50 (PC-3 prostate) | GI50 (RPMI-8226 leukemia) | GI50 (SK-MEL-28 melanoma) | GI50 (T-47D breast) | TGI (T-47D breast) | GI50 (UACC-62 melanoma) | TGI (UACC-62 melanoma)
1 | CCOc1nc(-c2ccccc2)cc(-c2ccc(N3CCOCC3)cc2)c1C#N | > 100 µM | > 100 µM | > 100 µM | > 100 µM | > 100 µM | > 100 µM | > 100 µM | > 100 µM | – | – | – | – | – | – | – | – | – | – | –
2 | C#CC(F)(F)[C@]1(O)CC[C@H]2[C@@H]3CCC4=CC(=O)CCC4=C3[C@@H](c3ccc(C(C)=O)cc3)C[C@@]21C | 63 µM | – | 59 µM | 97.1 µM | > 100 µM | 97.9 µM | 6.25 µM | > 72.4 µM | 2.64 µM | 13.8 µM | 18.9 µM | 28.3 µM | 10 µM | 0.333 µM | 16.2 µM | < 0.0135 µM | 36.1 µM | 12.5 µM | 33.8 µM
3 | O=[Se](=O)c1ccccc1.O=[Se](=O)c1ccccc1.[Cu] | 62 µM | – | 30 µM | 34.5 µM | 37.9 µM | – | 63.1 µM | 30.7 µM | 24.1 µM | 10.5 µM | 18.7 µM | 23 µM | – | 17 µM | 16.6 µM | – | – | 6.82 µM | 18.9 µM
4 | Oc1ccc(SCc2cc(O)c(O)c(O)c2)cc1 | 38.4 µM | – | 58.5 µM | – | 50.7 µM | > 100 µM | 78.6 µM | > 100 µM | – | – | – | – | – | – | – | – | > 100 µM | – | 41.4 µM
5 | O=C1NC2(CCCCC2)C2CCCCCC12 (centres undefined) | – | – | – | > 100 µM | > 100 µM | – | – | > 100 µM | – | – | – | – | – | – | – | – | – | – | > 100 µM
6 | CCOC(=O)CNC(=O)C(C)NC(=O)C(NC(=O)CC(c1ncc[nH]1)c1ncc[nH]1)C(C)CC (centres undefined) | > 100 µM | > 100 µM | > 100 µM | > 100 µM | > 100 µM | – | > 100 µM | > 100 µM | – | – | – | – | – | – | – | – | > 100 µM | – | > 100 µM
7 | Cc1cc(-c2nc3ccccc3s2)ccc1NC(=O)[C@H](C)N | 20.4 µM | 24.1 µM | 38.5 µM | 26.2 µM | 19.1 µM | 26.7 µM | – | 29.3 µM | – | – | – | – | – | – | – | – | 21.4 µM | – | 29.1 µM
8 | CSC1=C(C#N)C(=O)N(c2ccc(C)cc2)C(=S)C1C#N (centres undefined) | > 100 µM | > 100 µM | > 100 µM | > 100 µM | > 100 µM | > 100 µM | – | > 100 µM | – | – | – | – | – | – | – | – | – | – | > 100 µM
9 | N#C[S-].[Nd+3].c1ccc(-c2ccccn2)nc1.c1ccc(-c2ccccn2)nc1.c1ccc(-c2ccccn2)nc1 | – | – | – | > 100 µM | – | – | – | > 100 µM | – | – | 49.8 µM | – | – | – | 13.7 µM | – | – | 5.26 µM | 28.2 µM
10 | CC(=O)OC(OC(C)=O)n1cc(C=O)c2ccccc21 | > 100 µM | – | > 100 µM | > 100 µM | > 100 µM | > 100 µM | > 100 µM | > 100 µM | – | – | – | – | – | – | – | – | > 100 µM | – | –
11 | Cc1cccc(C2=NC(C)(C)C(C)(C)N=C2c2cccc(C)n2)n1 | – | – | – | > 100 µM | > 100 µM | – | > 100 µM | > 100 µM | – | – | – | – | – | – | – | – | – | – | > 100 µM
12 | O=C1Nc2cc([N+](=O)[O-])ccc2NC1/C(=N\Nc1ccccc1)C(O)c1cccc([N+](=O)[O-])c1 (centres undefined) | – | – | – | > 100 µM | > 100 µM | – | > 100 µM | > 100 µM | – | – | – | – | – | – | – | – | – | – | > 100 µM
13 | NC(=O)C#CC(N)=O | 48.5 µM and 56.8 µM | – | 25.9 µM and 18 µM | 87.5 µM and 55 µM and > 100 µM | 38.4 µM and 47.9 µM and > 90.8 µM | – | 62.1 µM | 20 µM and 15.6 µM and 27 µM | – | 8.22 µM | 30.7 µM and 21.6 µM and > 100 µM | 20.9 µM and > 54 µM | – | – | 8.21 µM and 5.85 µM | – | – | – | 28.4 µM and 29.5 µM and 43 µM
14 | C=C(CC[C@@H](C(=O)O)[C@H]1[C@H](O)C[C@@]2(C)C3=CC[C@@H](C(=C)C)[C@](C)(CCC(=O)O)C3=CC[C@]12C)C(C)C | 32.6 µM | 32 µM | 42.3 µM | 36.3 µM | 30.5 µM | 34.3 µM | – | 40 µM | – | – | – | – | – | – | – | – | 50.7 µM | – | 29.1 µM
15 | COC(=O)c1cc(C#N)[nH]c1-c1ccc(C)s1 | – | > 100 µM | > 100 µM | > 100 µM | > 100 µM | 46.4 µM | > 100 µM | > 100 µM | – | – | – | – | – | – | – | – | > 100 µM | – | > 100 µM
16 | [N-]=[N+]=CC(=O)OCC1SCCCS1 | > 100 µM | > 100 µM | – | > 100 µM | > 100 µM | > 100 µM | > 100 µM | > 100 µM | – | – | – | – | – | – | – | – | – | – | > 100 µM
17 | Cc1cccc(NC(=O)C(=O)C(C(=O)c2ccccc2F)C2OC(=O)c3ccccc32)c1Cl (centres undefined) | – | – | – | > 100 µM | > 100 µM | – | > 100 µM | > 100 µM | – | – | – | – | – | – | – | – | – | – | 85.4 µM
